Assay results from publication PMC10539501 (Nature Communications, 2023).
Starred links: 1 amine or outer side, 2 acyl side, 3 side chain; linkers in the order of their positions; H or OH if unused. Non-standard residues stand in square brackets, D forms with d. Residues, ends and D or L forms follow the SMILES beside them. X13 = CC[C@H](C)[C@H](NC(=S)[C@@H]1CCCN1[*:1])C(=O)[*:2]; X17 = CC[C@H](C)[C@H](N[*:1])C(=S)N1CCC[C@H]1C(=O)[*:2]; AlaΨ(CSNH)Ala = C[C@H](NC(=S)[C@H](C)N[*:1])C(=O)[*:2]; X11 = CC[C@H](C)[C@H](N[*:1])C(=S)N[C@@H](C)C(=O)[*:2]; X2 = CC(C)C[C@H](NC(=S)[C@@H](CC(C)C)N[*:1])C(=O)[*:2]; X9 = O=C([C@@H]1CCCN1C(=S)[C@H](Cc1ccccc1)N[*:1])[*:2]; X14 = C[C@H](N[*:1])C(=S)N[C@@H](Cc1ccccc1)C(=O)[*:2]; X15 = CC(C)C[C@@H](NC(=S)[C@H]1CCCN1[*:1])C(=O)[*:2]; X19 = CC(C)C[C@H](NC(=S)[C@@H]1CCCN1[*:1])C(=O)[*:2]; X18 = C[C@@H](N[*:1])C(=S)N1CCC[C@H]1C(=O)[*:2]; X20 = C[C@H](NC(=S)[C@@H](C)N[*:1])C(=O)[*:2]

Experiments:
physchem = conditions: pH 7.4
[1] = Octanol-water distribution coefficient (logD7.4); conditions: octanol/water, pH 7.4
[2] = type: physicochemical
[3] = PAMPA passive permeability; type: in vitro ADME;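 also: passive permeability across an artificial membrane in 96-well pre-coated PAMPA plates, which lack transporters and efflux systems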
Procedure: Encouraged by this, the passive permeability of the analogs was evaluated using an artificial membrane (PAMPA), which measures permeability of compounds in the absence of transporters and efflux systems[32].
96-well BD Corning® pre-coated PAMPA plates were used following the supplier’s protocol, details in Supplementary Information.

in vitro = in vitro ADME, human; conditions: human; for Papp A→B: Caco-2, Papp A-B avg
Procedure: (§1) The Caco-2 cell (HTB-37^TM from ATCC, procured from NCCS, Pune) monolayer was washed and pre-incubated at 37 °C and 5% CO2 for 30 min with HBSS-HEPES buffer containing 1% DMSO prior to experimentation. The assay was performed 21 days post-seeding of cells. TEER values were measured before starting and after the completion of the assay. Acceptor and donor well concentrations of the peptides and controls were assessed through LC-MS/MS.

Caco-2 cells = assay: in vitro; type: in vitro ADME, human; conditions: Caco-2
Procedure: as §1
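For Papp A-B + Elacridar avg in this document: Caco-2 monolayers used 21 days after seeding in HBSS-HEPES buffer with 1% DMSO, donor and acceptor levels quantified by LC-MS/MS, TEER checked before and after.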
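For Papp A-B avg (second block) in this document: Caco-2 monolayers used 21 days after seeding in HBSS-HEPES buffer with 1% DMSO, donor and acceptor levels quantified by LC-MS/MS, TEER checked before and after.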
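For Papp A-B set 1 (second block) in this document: Caco-2 monolayers used 21 days after seeding in HBSS-HEPES buffer with 1% DMSO, donor and acceptor levels quantified by LC-MS/MS, TEER checked before and after.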
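For Papp A-B set 2 (second block) in this document: Caco-2 monolayers used 21 days after seeding in HBSS-HEPES buffer with 1% DMSO, donor and acceptor levels quantified by LC-MS/MS, TEER checked before and after.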

N[C@@H](Cc1ccccc1)C(=O)N[C@@H](CCC(=O)O)C(=O)O [compound 2] (H-Phe-Glu-OH)
logD (physchem): -2.56

C[C@@H]1NC(=O)[C@H](C)NC(=O)[C@H](C)NC(=S)[C@H](C)NC(=O)[C@@H](C)NC(=O)[C@H](C)NC1=O [9b]
logD [1]: -0.7

C[C@@H]1NC(=O)[C@H](C)NC(=S)[C@H](C)NC(=O)[C@H](C)NC(=O)[C@@H](C)NC(=O)[C@H](C)NC1=O [9c]
logD [1]: -0.59

C[C@@H]1NC(=O)[C@H](C)NC(=O)[C@H](C)NC(=O)[C@@H](C)NC(=S)[C@H](C)NC(=O)[C@H](C)NC1=O [9f]
logD [1]: -0.24

CSCC[C@H](NC(=S)[C@@H](N)Cc1ccccc1)C(=O)O [6a]
logD (physchem): -0.79

CC[C@H](C)[C@@H]1NC(=O)[C@@H]2CCCN2C(=O)[C@H]([C@@H](C)CC)NC(=O)[C@@H]2CCCN2C(=O)[C@H](Cc2ccccc2)NC(=S)[C@H](C)NC(=O)[C@H](C)NC1=O [11c] (cyclo(A[X14]PIPI))
% solubility [2]: 76%
Papp ([3]; Pe Avg): 1 ×10⁻⁶ cm/s
logD (physchem): 0.43

C[C@@H]1NC(=O)[C@H](C)NC(=O)[C@H](C)NC(=O)[C@@H](C)NC(=O)[C@H](C)NC(=O)[C@H](C)NC1=O [compound 9, cyclo(-D-Ala-L-Ala5-)]
logD [1]: -2.48

CC[C@H](C)[C@@H]1NC(=O)[C@@H]2CCCN2C(=O)[C@H]([C@@H](C)CC)NC(=S)[C@@H]2CCCN2C(=O)[C@H](Cc2ccccc2)NC(=O)[C@H](C)NC(=O)[C@H](C)NC1=O [11e] (cyclo(AAF[X13]PI))
% solubility [2]: 65%
Papp ([3]; Pe (PAMPA vs logD7.4)): 0.83 ×10⁻⁶ cm/s
Papp ([3]; Pe Avg): 0.8 ×10⁻⁶ cm/s
logD (physchem): 0.58

C[C@@H]1NC(=O)[C@H](C)NC(=S)[C@H](C)NC(=O)[C@H](C)NC(=O)[C@@H](C)NC1=O [8c]
logD [1]: -0.19

CSCC[C@@H](C(=O)O)N(C)C(=O)[C@@H](N)Cc1ccccc1 [6b]
logD (physchem): -1.05

CN(C(=O)[C@@H](N)Cc1ccccc1)[C@@H](Cc1c[nH]c2ccccc12)C(=O)O [7b]
logD (physchem): 0.21

CC[C@H](C)[C@@H]1NC(=O)[C@@H]2CCCN2C(=O)[C@H]([C@@H](C)CC)NC(=O)[C@@H]2CCCN2C(=S)[C@H](Cc2ccccc2)NC(=O)[C@H](C)NC(=O)[C@H](C)NC1=O [11d] (cyclo(AA[X9]IPI))
% solubility [2]: 85%
Papp ([3]; Pe Avg): 0.4 ×10⁻⁶ cm/s
logD (physchem): 0.33

CC(C)C[C@@H]1NC(=O)[C@@H](CC(C)C)NC(=O)[C@H]2CCCN2C(=O)[C@H](CC(C)C)NC(=S)[C@@H](CC(C)C)NC(=O)[C@H](CC(C)C)NC(=O)[C@@H]2CCCN2C(=O)[C@@H](C)NC1=O [12a] (cyclo(L[dA]PL[X2][dP][dL]))
% solubility [2]: 69%
Papp ([3]; Pe Avg): 4.4 ×10⁻⁶ cm/s
logD (physchem): 1.34

CC(C)C[C@@H]1NC(=O)[C@@H](CC(C)C)NC(=O)[C@H]2CCCN2C(=O)[C@H](CC(C)C)NC(=O)[C@@H](CC(C)C)NC(=O)[C@H](CC(C)C)NC(=S)[C@@H]2CCCN2C(=O)[C@@H](C)NC1=O [12g] (cyclo(L[dA][X19][dL]L[dP][dL]))
% solubility [2]: 46%
Papp ([3]; Pe Avg): 10.2 ×10⁻⁶ cm/s
logD (physchem): 1.59

C[C@@H]1NC(=O)[C@H](C)NC(=S)[C@H](C)NC(=O)[C@@H](C)NC(=O)[C@H](C)NC1=O [8b]
logD [1]: -0.14

CC(C)[C@H](NC(=O)[C@@H](N)Cc1ccccc1)C(=O)O [compound 5] (H-Phe-Val-OH)
logD (physchem): -1.28

CC[C@H](C)[C@@H]1NC(=O)[C@@H]2CCCN2C(=O)[C@H]([C@@H](C)CC)NC(=O)[C@@H]2CCCN2C(=O)[C@H](Cc2ccccc2)NC(=O)[C@H](C)NC(=S)[C@H](C)NC1=O [11b] (cyclo(FPIPI[AlaΨ(CSNH)Ala]))
% solubility [2]: 93%
Papp ([3]; Pe (PAMPA vs logD7.4)): 0.42 ×10⁻⁶ cm/s
Papp ([3]; Pe Avg): 0.4 ×10⁻⁶ cm/s
logD (physchem): 0.28

C[C@@H](C(=O)O)N(C)C(=O)[C@@H](N)Cc1ccccc1 [4b]
logD (physchem): -1.76

C[C@H](NC(=S)[C@@H](N)Cc1ccccc1)C(=O)O [4a]
logD (physchem): -1.76

C[C@H]1O[C@@H](O[C@H]2[C@@H](O)C[C@H](O[C@H]3[C@@H](O)C[C@H](O[C@H]4CC[C@@]5(C)[C@H](CC[C@@H]6[C@@H]5C[C@@H](O)[C@]5(C)[C@@H](C7=CC(=O)OC7)CC[C@]65O)C4)O[C@@H]3C)O[C@@H]2C)C[C@H](O)[C@@H]1O [Digoxin, reference compound]
Papp A→B (in vitro): 0.721 ×10⁻⁶ cm/s
Papp B→A (in vitro; Caco-2, Papp B-A avg): 29.5 ×10⁻⁶ cm/s
Papp A-B + Elacridar avg (Caco-2 cells): 1.5 ×10⁻⁶ cm/s
Papp A-B avg (second block) (Caco-2 cells): 0.72 ×10⁻⁶ cm/s
Papp A-B set 1 (second block) (Caco-2 cells): 0.79 ×10⁻⁶ cm/s
Papp A-B set 2 (second block) (Caco-2 cells): 0.65 ×10⁻⁶ cm/s
Papp B-A + Elacridar avg (Caco-2 cells): 6.2 ×10⁻⁶ cm/s
Papp B-A avg (second block) (Caco-2 cells): 29.5 ×10⁻⁶ cm/s
Papp B-A set 1 (second block) (Caco-2 cells): 28.5 ×10⁻⁶ cm/s
Papp B-A set 2 (second block) (Caco-2 cells): 30.4 ×10⁻⁶ cm/s

CC(C)NCC(O)COc1cccc2ccccc12 (stereo not drawn) [Propranolol, reference compound]
Papp A→B (in vitro): 16.6 ×10⁻⁶ cm/s
Papp A-B avg (second block) (Caco-2 cells): 16.6 ×10⁻⁶ cm/s
Papp A-B set 1 (second block) (Caco-2 cells): 17.28 ×10⁻⁶ cm/s
Papp A-B set 2 (second block) (Caco-2 cells): 15.87 ×10⁻⁶ cm/s
Papp B-A avg (second block) (Caco-2 cells): 34.1 ×10⁻⁶ cm/s
Papp B-A set 1 (second block) (Caco-2 cells): 37.6 ×10⁻⁶ cm/s
Papp B-A set 2 (second block) (Caco-2 cells): 30.7 ×10⁻⁶ cm/s

CC[C@H](C)[C@@H]1NC(=O)[C@@H]2CCCN2C(=S)[C@H]([C@@H](C)CC)NC(=O)[C@@H]2CCCN2C(=O)[C@H](Cc2ccccc2)NC(=O)[C@H](C)NC(=O)[C@H](C)NC1=O [11f] (cyclo(AAFP[X17]I))
% solubility [2]: 76%
Papp ([3]; Pe Avg): 1.1 ×10⁻⁶ cm/s
logD (physchem): 0.37

C[C@@H]1NC(=O)[C@H](C)NC(=O)[C@H](C)NC(=O)[C@@H](C)NC(=O)[C@H](C)NC1=O [compound 8, cyclo(-D-Ala-L-Ala4-)]
logD [1]: -1.46

N[C@@H](Cc1ccccc1)C(=S)NCC(=O)O [3a]
logD (physchem): -1.61

CC(C)[C@@H](C(=O)O)N(C)C(=O)[C@@H](N)Cc1ccccc1 [5b]
logD (physchem): -0.62

CC(C)[C@H](NC(=S)[C@@H](N)Cc1ccccc1)C(=O)O [5a]
logD (physchem): -0.92

N[C@@H](Cc1ccccc1)C(=S)N[C@@H](Cc1c[nH]c2ccccc12)C(=O)O [7a]
logD (physchem): 0.13

CC[C@H](C)[C@@H]1NC(=O)[C@@H]2CCCN2C(=O)[C@H](Cc2ccccc2)NC(=O)[C@H](C)NC(=O)[C@H](C)NC(=S)[C@H]([C@@H](C)CC)NC(=O)[C@@H]2CCCN2C1=O [11a] (cyclo(AFPIP[X11]))
% solubility [2]: 74%
Pe Avg [3]: 4.6 ×10⁻⁶ cm/s
Papp ([3]; Pe (PAMPA vs logD7.4)): 4.67 ×10⁻⁶ cm/s
logD (physchem): 0.55

NCCCC[C@H](NC(=O)[C@@H](N)Cc1ccccc1)C(=O)O [compound 1]
logD (physchem): -2.88

C[C@@H]1NC(=O)[C@H](C)NC(=O)[C@H](C)NC(=S)[C@@H](C)NC(=O)[C@H](C)NC(=O)[C@H](C)NC1=O [9a] (cyclo([X20]AAAA))
logD [1]: -0.67

N[C@@H](Cc1ccccc1)C(=O)NCC(=O)O [compound 3] (H-Phe-Gly-OH)
logD (physchem): -2.22

CN(C(=O)[C@@H](N)Cc1ccccc1)[C@@H](CCCCN)C(=O)O [1b]
logD (physchem): -1.95

C[C@@H]1NC(=O)[C@H](C)NC(=O)[C@@H](C)NC(=O)[C@H](C)NC(=S)[C@H](C)NC1=O [8d]
logD [1]: -0.23

NCCCC[C@H](NC(=S)[C@@H](N)Cc1ccccc1)C(=O)O [1a]
logD (physchem): -2.12

CN(C(=O)[C@@H](N)Cc1ccccc1)[C@@H](CCC(=O)O)C(=O)O [2b]
logD (physchem): -2.14

N[C@@H](Cc1ccccc1)C(=O)N[C@@H](Cc1c[nH]c2ccccc12)C(=O)O [compound 7] (H-Phe-Trp-OH)
logD (physchem): -0.65

CC(C)C[C@@H]1NC(=O)[C@@H](CC(C)C)NC(=O)[C@H]2CCCN2C(=O)[C@H](CC(C)C)NC(=O)[C@@H](CC(C)C)NC(=O)[C@H](CC(C)C)NC(=O)[C@@H]2CCCN2C(=S)[C@@H](C)NC1=O [12f] (cyclo(L[dL]L[dP][dL]L[X18]))
% solubility [2]: 30%
Papp ([3]; Pe Avg): 6.4 ×10⁻⁶ cm/s
logD (physchem): 1.58

C[C@@H]1NC(=O)[C@H](C)NC(=O)[C@@H](C)NC(=O)[C@H](C)NC(=O)[C@H](C)NC(=S)[C@H](C)NC1=O [9d]
logD [1]: -0.67

CC[C@H](C)[C@@H]1NC(=S)[C@@H]2CCCN2C(=O)[C@H]([C@@H](C)CC)NC(=O)[C@@H]2CCCN2C(=O)[C@H](Cc2ccccc2)NC(=O)[C@H](C)NC(=O)[C@H](C)NC1=O [11g] (cyclo(AAFPI[X13]))
% solubility [2]: 93%
Papp ([3]; Pe (PAMPA vs logD7.4)): 0.35 ×10⁻⁶ cm/s
Papp ([3]; Pe Avg): 0.3 ×10⁻⁶ cm/s
logD (physchem): 0.29

CC(C)C[C@@H]1NC(=O)[C@@H](CC(C)C)NC(=S)[C@H]2CCCN2C(=O)[C@H](CC(C)C)NC(=O)[C@@H](CC(C)C)NC(=O)[C@H](CC(C)C)NC(=O)[C@@H]2CCCN2C(=O)[C@@H](C)NC1=O [12c] (cyclo(L[dA]PL[dL]L[X15]))
% solubility [2]: 15%
Papp ([3]; Pe Avg): 1.4 ×10⁻⁶ cm/s
logD (physchem): 2.3

CSCC[C@H](NC(=O)[C@@H](N)Cc1ccccc1)C(=O)O [compound 6] (H-Phe-Met-OH)
logD (physchem): -1.41

CC(C)C[C@@H]1NC(=O)[C@@H]2CCCN2C(=O)[C@@H](C)NC(=O)[C@H](CC(C)C)NC(=S)[C@@H](CC(C)C)NC(=O)[C@H]2CCCN2C(=O)[C@H](CC(C)C)NC(=O)[C@@H](CC(C)C)NC1=O [12d] (cyclo(L[dL]L[dP][X2][dA]P))
% solubility [2]: 25%
Papp ([3]; Pe Avg): 8.9 ×10⁻⁶ cm/s
logD (physchem): 1.82

CN(CC(=O)O)C(=O)[C@@H](N)Cc1ccccc1 [3b]
logD (physchem): -1.73

C[C@@H]1NC(=O)[C@H](C)NC(=O)[C@@H](C)NC(=O)[C@H](C)NC(=S)[C@H](C)NC(=O)[C@H](C)NC1=O [9e]
logD [1]: -0.54

C[C@@H]1NC(=O)[C@H](C)NC(=O)[C@H](C)NC(=S)[C@@H](C)NC(=O)[C@H](C)NC1=O [8a]
logD [1]: -0.32

C[C@@H]1NC(=O)[C@H](C)NC(=O)[C@@H](C)NC(=S)[C@H](C)NC(=O)[C@H](C)NC1=O [8e]
logD [1]: -0.14

N[C@@H](Cc1ccccc1)C(=S)N[C@@H](CCC(=O)O)C(=O)O [2a]
logD (physchem): -1.45
